Measurements: ChEMBL document CHEMBL5653599, “AZD1152, a novel and selective aurora B kinase inhibitor, induces growth arrest, apoptosis, and sensitization for tubulin depolymerizing agent or topoisomerase II inhibitor in human acute leukemia cells in vitro and in vivo” (Blood, 2007)
Active and inactive are the calls of the source. The calls are words filed in the database; no cut-off is given here.

How the values were obtained:
[1] = system: MOLM-13; assay: Antitumor activity against human MOLM-13 cells xenografted in immunodeficient nude BALB/c mouse model assessed as suppression of tumor growth at 25 mg/kg, ip administered 4 times a week for 2 weeks measured twice per week; format: functional, organism-based
[2] = biological target: Aurora kinase B (Homo sapiens) (UniProt Q96GD4); assay: Inhibition of Aurora B in human MV4-11 cells assessed as decrease in histone H3 phosphorylation at Ser10 at 10 nM incubated for 24 hrs by flow cytometry (reference value: 52 %); format: cell-based; design: scale not given: the % may be the effect or the level left
Chain of Aurora kinase B (Homo sapiens) (Q96GD4 whole entry): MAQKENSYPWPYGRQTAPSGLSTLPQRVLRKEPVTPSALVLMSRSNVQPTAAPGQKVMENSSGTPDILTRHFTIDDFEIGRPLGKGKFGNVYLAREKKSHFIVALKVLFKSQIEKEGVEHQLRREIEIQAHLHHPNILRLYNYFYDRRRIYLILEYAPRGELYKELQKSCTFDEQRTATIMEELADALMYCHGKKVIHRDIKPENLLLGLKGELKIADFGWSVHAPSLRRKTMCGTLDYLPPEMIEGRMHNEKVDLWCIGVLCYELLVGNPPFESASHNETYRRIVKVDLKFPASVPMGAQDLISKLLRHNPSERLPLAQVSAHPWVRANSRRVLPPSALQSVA

[3] = system: MOLM-13; assay: Antitumor activity against human MOLM-13 cells xenografted in immunodeficient nude BALB/c mouse model assessed as necrotic tissue with infiltration of phagocytic cells at 25 mg/kg, ip administered 4 times a week for 2 weeks by H and E staining based analysis; format: functional, organism-based
[4] = biological target: Aurora kinase B (Homo sapiens) (UniProt Q96GD4); assay: Inhibition of Aurora B in human MOLM-13 cells assessed as decrease in histone H3 phosphorylation at Ser10 at 10 nM incubated for 24 hrs by flow cytometry (reference value: 43 %); format: cell-based; design: scale not given: the % may be the effect or the level left
[5] = system: MOLM-13; assay: In vivo antiproliferative activity against human MOLM-13 cells xenografted in immunodeficient nude BALB/c mouse model assessed as inhibition of cell proliferation at 5 mg/kg, ip administered 4 times a week for 2 weeks relative to control; format: functional; settings: MOLM-13, 336 h
[6] = system: MOLM-13; assay: Antitumor activity against human MOLM-13 cells xenografted in immunodeficient nude BALB/c mouse model assessed as decrease in tumor weight at 25 mg/kg, ip administered 4 times a week for 2 weeks measured twice per week (reference value: 583 +/- 150 mg); format: functional
[7] = system: MOLM-13; assay: Antitumor activity against human MOLM-13 cells xenografted in immunodeficient nude BALB/c mouse model assessed as reduction in tumor weight at 5 mg/kg, ip administered 4 times a week for 2 weeks in presence of vincristine; format: functional, organism-based
[8] = system: MOLM-13; assay: Antitumor activity against human MOLM-13 cells xenografted in immunodeficient nude BALB/c mouse model assessed as suppression of tumor weight at 25 mg/kg, ip administered 4 times a week for 2 weeks measured twice per week; format: functional, organism-based
[9] = system: MOLM-13; assay: Antitumor activity against human MOLM-13 cells xenografted in immunodeficient nude BALB/c mouse model assessed as decrease in tumor volume at 25 mg/kg, ip administered 4 times a week for 2 weeks measured twice per week (reference value: 1261 +/- 200 mm3); format: functional
[10] = system: MOLM-13; assay: Antitumor activity against human MOLM-13 cells xenografted in immunodeficient nude BALB/c mouse model assessed as reduction in tumor growth at 5 mg/kg, ip administered 4 times a week for 2 weeks in presence of daunorubicin; format: functional, organism-based
[11] = system: MOLM-13; assay: Antitumor activity against human MOLM-13 cells xenografted in immunodeficient nude BALB/c mouse model assessed as absence of leukemia cells at 25 mg/kg, ip administered 4 times a week for 2 weeks by H and E staining based analysis; format: functional, organism-based
[12] = system: MOLM-13; assay: Antitumor activity against human MOLM-13 cells xenografted in immunodeficient nude BALB/c mouse model assessed as tumor growth inhibition at 5 mg/kg, ip administered 4 times a week for 2 weeks in presence of vincristine relative to control; format: functional; settings: MOLM-13, 336 h
[13] = Toxicity in immunodeficient nude BALB/c mouse model xenografted with human MOLM-13 cells assessed as signs of body wasting at 25 mg/kg, ip administered 4 times a week for 2 weeks measured twice per week; format: organism-based; settings: in vivo, 336 h
[14] = Toxicity in immunodeficient nude BALB/c mouse model xenografted with human MOLM-13 cells assessed as signs of toxicity at 25 mg/kg, ip administered 4 times a week for 2 weeks measured twice per week; format: organism-based; settings: in vivo, 336 h
[15] = Toxicity in immunodeficient nude BALB/c mouse model xenografted with human MOLM-13 cells assessed as signs of body wasting at 5 mg/kg, ip administered 4 times a week for 2 weeks in presence of vincristine; format: organism-based; settings: in vivo, 336 h
[16] = Toxicity in immunodeficient nude BALB/c mouse model xenografted with human MOLM-13 cells at 1 mg/kg, ip administered 6 times in 2 weeks; format: organism-based; settings: in vivo, 336 h
[17] = system: MOLM-13; assay: Induction of apoptosis in human MOLM-13 cells assessed as early apoptotic cells at 1 nM incubated for 48 hrs by annexin V/PI staining based flow cytometry (reference value: 3.2 %); format: functional
[18] = system: MOLM-13; assay: Induction of apoptosis in human MOLM-13 cells assessed as early apoptotic cells at 10 nM incubated for 24 hrs by annexin V/PI staining based flow cytometry (reference value: 2.4 %); format: functional
[19] = system: MOLM-13; assay: Induction of apoptosis in human MOLM-13 cells assessed as late apoptotic cells at 1 nM incubated for 24 hrs by annexin V/PI staining based flow cytometry (reference value: 2.2 %); format: functional
[20] = system: MV4-11; assay: Inhibition of clonogenic growth in human MV4-11 cells incubated for 10 days; format: functional, cell-based; settings: MV4-11, 240 h
[21] = system: MOLM-13; assay: Induction of apoptosis in human MOLM-13 cells assessed as late apoptotic cells at 1 nM incubated for 48 hrs by annexin V/PI staining based flow cytometry (reference value: 1.9 %); format: functional
[22] = system: MOLM-13; assay: Induction of apoptosis in human MOLM-13 cells assessed as early apoptotic cells at 3 nM incubated for 48 hrs by annexin V/PI staining based flow cytometry (reference value: 3.2 %); format: functional
[23] = Inhibition of cell proliferation of human PALL-2 cells incubated for 48 hrs by 3H-thymidine uptake assay; format: functional, cell-based
[24] = system: MOLM-13; assay: Induction of apoptosis in human MOLM-13 cells assessed as late apoptotic cells at 10 nM incubated for 48 hrs by annexin V/PI staining based flow cytometry (reference value: 1.9 %); format: functional
[25] = system: MOLM-13; assay: Induction of apoptosis in human MOLM-13 cells assessed as late apoptotic cells at 10 nM incubated for 24 hrs by annexin V/PI staining based flow cytometry (reference value: 2.2 %); format: functional
[26] = biological target: Aurora kinase B (Homo sapiens) (UniProt Q96GD4); settings: MOLM-13, dose <= 10.0 nM, time 24-48 hrs
Description: Inhibition of Aurora B in human MOLM-13 cells assessed as increase in 4N/8N DNA content measured for 24 to 48 hrs by FACS analysis

[27] = system: MOLM-13; assay: Induction of apoptosis in human MOLM-13 cells assessed as early apoptotic cells at 1 nM incubated for 24 hrs by annexin V/PI staining based flow cytometry (reference value: 2.4 %); format: functional
[28] = system: MV4-11; assay: Inhibition of cell proliferation of human MV4-11 cells incubated for 48 hrs by 3H-thymidine uptake assay; format: functional, cell-based
[29] = system: MOLM-13; assay: Induction of apoptosis in human MOLM-13 cells assessed as late apoptotic cells at 3 nM incubated for 24 hrs by annexin V/PI staining based flow cytometry (reference value: 2.2 %); format: functional
[30] = system: MOLM-13; assay: Induction of apoptosis in human MOLM-13 cells assessed as increase in cleaved PARP level at 3 to 10 nM in presence of daunorubicin by immunoblot analysis; format: functional, cell-based; settings: dose 3-10 nM
[31] = system: MOLM-13; assay: Inhibition of cell proliferation of human MOLM-13 cells incubated for 48 hrs by 3H-thymidine uptake assay; format: functional, cell-based
[32] = Antiproliferative activity against human PALL-2 cells assessed as inhibition of cell proliferation at 3 nM by 3H-thymidine incorporation assay relative to control; format: functional
[33] = system: MOLM-13; assay: Induction of apoptosis in human MOLM-13 cells assessed as early apoptotic cells at 10 nM incubated for 48 hrs by annexin V/PI staining based flow cytometry (reference value: 3.2 %); format: functional
[34] = system: MOLM-13; assay: Induction of apoptosis in human MOLM-13 cells assessed as early apoptotic cells at 3 nM incubated for 24 hrs by annexin V/PI staining based flow cytometry (reference value: 2.4 %); format: functional
[35] = system: MOLM-13; assay: Induction of apoptosis in human MOLM-13 cells assessed as late apoptotic cells at 3 nM incubated for 48 hrs by annexin V/PI staining based flow cytometry (reference value: 1.9 %); format: functional
[36] = biological target: Aurora kinase B (Homo sapiens) (UniProt Q96GD4); settings: MOLM-13, dose <= 10.0 nM, time 24-48 hrs; remark: listed apart in the source
Description: Inhibition of Aurora B in human MOLM-13 cells assessed as increase in 4N/8N DNA content upto 10 nM by FACS analysis

[37] = biological target: Aurora kinase B (Homo sapiens) (UniProt Q96GD4); settings: PALL-2, dose <= 10.0 nM, time 24-48 hrs
Description: Inhibition of Aurora B in human PALL-2 cells assessed as increase in 4N/8N DNA content upto 10 nM by FACS analysis

[38] = biological target: Aurora kinase B (Homo sapiens) (UniProt Q96GD4); settings: PALL-2, dose <= 10.0 nM, time 24-48 hrs; remark: listed apart in the source
Description: Inhibition of Aurora B in human PALL-2 cells assessed as increase in 4N/8N DNA content measured for 24 to 48 hrs by FACS analysis

[39] = system: MOLM-13; settings: Homo sapiens, dose 1.0 nM
[40] = Synergistic antiproliferative activity against human PALL-2 cells assessed as inhibition of cell proliferation at 0.3 to 3 nM in presence of vincristine by 3H-thymidine incorporation assay relative to control; format: functional; settings: dose 0.3-3 nM
[41] = system: MOLM-13; settings: Homo sapiens, dose 1-10 nM
[42] = system: MOLM-13; assay: Inhibition of clonogenic growth in human MOLM-13 cells incubated for 10 days; format: functional, cell-based; settings: MOLM-13, 240 h
[43] = system: MOLM-13; assay: Induction of apoptosis in human MOLM-13 cells assessed as increase in cleaved PARP level at 1 to 3 nM in presence of vincristine by immunoblot analysis; format: functional, cell-based; settings: dose 1-3 nM
[44] = system: PALL-2; assay: Induction of apoptosis in human PALL-2 cells assessed as increase in cleaved PARP level at 1 to 3 nM in presence of vincristine by immunoblot analysis; format: functional, cell-based; settings: dose 1-3 nM
[45] = Antiproliferative activity against human PALL-2 cells assessed as inhibition of cell proliferation at 0.3 uM by 3H-thymidine incorporation assay relative to control; format: functional
[46] = system: MOLM-13; assay: In vivo antiproliferative activity against human MOLM-13 cells xenografted in immunodeficient nude BALB/c mouse model assessed as inhibition of cell proliferation at 0.2 mg/kg, ip administered for 2 weeks on every another day for first week relative to control; format: functional; settings: MOLM-13, 336 h
[47] = system: PALL-2; assay: Induction of apoptosis in human PALL-2 cells assessed as increase in cleaved PARP level by immunoblot analysis; format: functional, cell-based; settings: dose 0.1-1 µM
[48] = system: MOLM-13; assay: Induction of apoptosis in human MOLM-13 cells assessed as increase in cleaved PARP level by immunoblot analysis; format: functional, cell-based; settings: dose 0.1-1 µM

CCN(CCCOc1ccc2c(Nc3cc(CC(=O)Nc4cccc(F)c4)[nH]n3)ncnc2c1)CCOP(=O)(O)O [BARASERTIB]
Activity [1]: Active
Activity [2]: 19%
Activity [3]: Active
Activity [4]: 25%
inhibition in vivo at 5 mg/kg [5]: ~50%
Activity [6]: 78 mg
Activity [7]: Active
Activity [8]: Active
Activity [9]: 71 mm3
Activity [10]: Active
Activity [11]: Active
inhibition in vivo at 5 mg/kg [12]: ~100%

CCN(CCCOc1ccc2c(Nc3cc(CC(=O)Nc4cccc(F)c4)n[nH]3)ncnc2c1)CCOP(=O)(O)O [BARASERTIB]
Activity [13]: Non-Toxic
Activity [14]: Non-Toxic
Activity [15]: Non-Toxic

COc1cccc2c1C(=O)c1c(O)c3c(c(O)c1C2=O)C[C@@](O)(C(C)=O)C[C@@H]3O[C@H]1C[C@H](N)[C@H](O)[C@H](C)O1 [DAUNORUBICIN]
Activity [16]: Toxic

CCN(CCO)CCCOc1ccc2c(Nc3cc(CC(=O)Nc4cccc(F)c4)[nH]n3)ncnc2c1 [DEFOSBARASERTIB]
Activity [17]: 1.9%
Activity [18]: 6.5%
Activity [19]: 4.3%
IC50 [20]: 2.8 nM
Activity [21]: 3.8%
Activity [22]: 2.2%
IC50 [23]: 5 nM
Activity [24]: 15%
Activity [25]: 7.1%
inhibition [26]: Dose-Dependent Effect
Activity [27]: 3.1%
IC50 [28]: 8 nM
Activity [29]: 3.8%
Activity [30]: Active
IC50 [31]: 12 nM
inhibition at 0.003 µM [32]: ~35%
Activity [33]: 36%
Activity [34]: 3.4%
Activity [35]: 3.5%
inhibition [36]: Tde
inhibition [37]: Tde
inhibition [38]: Dose-Dependent Effect
inhibition [39]: Active
inhibition (INH) [40]: ~80%
inhibition [41]: Active
IC50 [42]: 1 nM
Activity [43]: Active
Activity [44]: Active

CC[C@]1(O)C[C@H]2CN(CCc3c([nH]c4ccccc34)[C@@](C(=O)OC)(c3cc4c(cc3OC)N(C=O)[C@H]3[C@@](O)(C(=O)OC)[C@H](OC(C)=O)[C@]5(CC)C=CCN6CC[C@]43[C@@H]65)C2)C1 [VINCRISTINE]
inhibition at 0.3 µM [45]: ~35%
inhibition in vivo at 0.2 mg/kg [46]: ~50%
Activity [47]: Dose-Dependent Effect
Activity [48]: Dose-Dependent Effect
